Test results reported in US10688093B2, “Methods, compositions, and uses of novel Fyn kinase inhibitors” (priority 2015, dated 2020).

Biological target: full-length recombinant human FYN A (Homo sapiens (Human), UniProt P06241)
Assay: ADP-Glo Kinase Assay of FYN kinase inhibition
Type: biochemical
Conditions: primary screen, initial compounds
Source text: The chemical library was comprised of the SoftFocus ATP-competitive hinge binding compounds described by Harris, C. J., Hill, R. D., Sheppard, D. W., et al., The Design and Application of Target-Focused Compound Libraries. Combinatorial Chemistry and High Throughput Screening 14:521-31 (2011). The specific pharmacore chemistries included SFK52 comprising 6-[R2]-3-[R1]imidazo[1,2-b] pyridazine compounds, SFK33 comprising N-(3-[R2] imidazo [1,2-b] pyridazin-6-yl) [R1] amine compounds, SFK49 comprising N-(5-[R2] imidazo [2,1-b][1,3,4] thiadiazol-2-yl)[R1]-amine compounds, SFK 40 comprising 5-[R2]-3-[R1] pyridin-2-amine compounds, SFK43 comprising 6-[R2]-3-[R1]imidazo[1,2-a]pyrazine compounds, and SFK63. The chemical structures of the initial 600 potential kinase inhibitors are presented in Table 3, with those chosen for additional analysis presented in Table 4. Comparison of the compounds presented in Table 1 and those of Tables 2, 3 and 4, illustrate the novelty of the chemical structures claimed herein.
FYN kinase (10 micrograms) was from the FYN A Kinase Enzyme System (V3571, Promega UK Ltd.), a full-length recombinant human FYN A containing an N-terminal GST tag of about 85 kDa, expressed by bacullovirus in […] insect cells, supplied at a concentration of 0.1 microgram/microliter in 5×reaction buffer. The FYN substrate, a 12 amino acid peptide of the sequence […], containing a single tyrosine phosphorylation site, was custom synthesized (Peptide Synthetics, Peptide Protein Research, Fareham, UK) and supplied as a 4 mg/ml aqueous solution. All other reagents were obtained from Sigma (Sigma-Aldrich, Gillingham, Dorset, UK), with the exception of UltraPure ATP (V9102, Promega UK Ltd.) and the ATP-competitive broad spectrum protein kinase inhibitor staurosporine (569397, Merck Millipore, Watford, Hertfordshire, UK), or as otherwise indicated.
The assay procedure determines the IC50 of each potential FYN kinase inhibitor by measuring the enzyme catalyzed ATP-dependent phosphorylation of the FYN substrate peptide. The ADP-Glo™ Kinase Assay is specifically designed to quantify kinase activity by measuring the ADP produced in the reaction The reaction buffer comprises 40 mM Tris.HCl (pH 7.5), 20 mM MgCl2, 0.1 mg/ml BSA and 5 microM DTT. Individual compounds within the chemical library were dissolved in DMSO at known concentrations. Briefly, 2.5 microliters of reaction buffer containing 3 picograms of FYN kinase and serial dilutions of each potential FYN kinase inhibitor (9 3-fold dilutions of a 10 micromolar top sample) are placed into each well of a 384 well microtiter plate and incubated at room temperature for 30 minutes. An additional 2.5 microliters of reaction buffer containing 100 picograms of the FYN substrate and 12.5 picomoles of ATP are then added to each well and the reaction carried out for 90 minutes at room temperature. The reactions are terminated by addition of 5 microliters of the ADP-Glo™ Reagent component of the ADP-Glo™ Kinase Assay kit to each well. The ADP-Glo™ Reagent comprises an ATP-dependent adenylate cyclase, an inorganic pyrophosphatase and an excess of staurosporine. The adenylate cyclase converts the remaining ATP to cAMP and pyrophospahte, the pyrophosphatase converts the pyrophosphate to phosphate and the staurosporine inhibits the activity of the FYN kinase, the net effect is to remove all residual ATP while preserving the ADP produced by FYN kinase. The terminated reactions are incubated for 40 minutes at room temperature, prior to addition of the Kinase Detection Reagent component of the ADP-Glo™ Kinase Assay kit to each well. The Kinase Detection Reagent comprises pyruvate kinase, phosphoenol pyruvate (PEP), luciferin and luciferase. The pyruvate kinase converts PEP to pyruvate and in the process generates ATP from the residual ADP present in the terminated reaction. […]

Chain of full-length recombinant human FYN A (P06241 whole entry): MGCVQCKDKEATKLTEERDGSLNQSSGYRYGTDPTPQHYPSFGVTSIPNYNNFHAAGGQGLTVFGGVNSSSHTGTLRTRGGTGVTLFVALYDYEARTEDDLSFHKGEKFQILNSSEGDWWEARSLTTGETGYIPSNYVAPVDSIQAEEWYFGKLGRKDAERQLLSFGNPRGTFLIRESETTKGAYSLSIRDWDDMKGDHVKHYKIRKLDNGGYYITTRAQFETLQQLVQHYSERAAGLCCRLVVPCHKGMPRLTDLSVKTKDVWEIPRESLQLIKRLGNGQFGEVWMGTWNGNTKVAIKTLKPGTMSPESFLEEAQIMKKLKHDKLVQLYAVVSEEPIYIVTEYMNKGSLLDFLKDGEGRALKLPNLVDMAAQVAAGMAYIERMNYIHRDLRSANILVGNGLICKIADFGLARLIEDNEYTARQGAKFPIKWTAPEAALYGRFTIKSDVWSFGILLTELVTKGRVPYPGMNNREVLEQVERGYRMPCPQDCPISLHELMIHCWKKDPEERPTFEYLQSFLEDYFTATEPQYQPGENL

| SMILES | IC50 |
| --- | --- |
| CC(=O)Nc1cccc(-c2cncc(-c3cccc(O)c3)n2)c1 [035_0081_0284, N-[3-[6-(3-hydroxyphenyl)pyrazin-2-yl]phenyl] acetamide] | 3.88 µM |
| COc1ccc(-c2cncc(-c3ccc(O)c(OC)c3)n2)cc1 [035_0280_0314, 2-methoxy-4-[6-(4-methoxyphenyl)pyrazin-2-yl]phenol] | 5.18 µM |
| COc1cc(Nc2cncc(-c3cccc(NC(C)=O)c3)c2)cc(OC)c1OC [081_0087_0081, N-[3-[5-(3,4,5-trimethoxyanilino)-3-pyridyl]phenyl] acetamide] | 0.391 µM |
| COc1cccc(Cn2c(=O)[nH]c3ncc(-c4cc(OC)c(OC)c(OC)c4)nc32)c1 [170_4313_0087, 3-[(3-methoxyphenyl)methyl]-5-(3,4,5-trimethoxy-phenyl)-1H-imidazo[4,5-b]pyrazin-2-one] | 23.4 µM |
| COCCNc1ccc2ncc(-c3ccsc3)n2n1 [229_0033_0074, N-(2-methoxy-ethyl)-3-(3-thienyl)imidazo [1,2-b]pyridazin-6-amine] | 5.23 µM |
| COCCNc1ccc2ncc(-c3ccc(OC)c(OC)c3)n2n1 [229_0033_0079, 3-(3,4-dimethoxy-phenyl)-N-(2-methoxyethyl) imidazo[1,2-b]pyridazin-6-amine] | 1.55 µM |
| COCCNc1ccc2ncc(-c3ccc(F)cc3)n2n1 [229_0033_0339, 3-(4-fluoro-phenyl)-N-(2-methoxyethyl) imidazo[1,2-b]pyridazin-6-amine] | 4 µM |
| COc1cc(-c2cnc3ccc(NCc4ccco4)nn23)cc(OC)c1OC [229_0144_0086, N-(2-furylmethyl)-3-(3,4,5-trimethoxyphenyl) imidazo[1,2-b]pyridazin-6-amine] | 4.9 µM |
| O=C(O)c1ccc(-c2cnc3ccc(NCc4ccco4)nn23)cc1 [229_0144_0140, 4-[6-(2-furylmethyl-amino)imidazo[1,2-b]pyridazin-3-yl]benzoic acid] | 3.88 µM |
| COc1ccc(-c2cnc3ccc(NCc4ccco4)nn23)cc1 [229_0144_0280, N-(2-furyl-methyl)-3-(4-methoxyphenyl) imidazo[1,2-b]pyridazin-6-amine] | 3.68 µM |
| Nc1cccc(-c2cnc3ccc(NCc4cccs4)nn23)c1 [229_0146_0005, 3-(3-aminophenyl)-N-(2-thienyimethyl) imidazo[1,2-b]pyridazin-6-amine] | 1.79 µM |
| COc1ccc(-c2cnc3ccc(NCc4cccs4)nn23)cc1 [229_0146_0280, 3-(4-methoxyphenyl)-N-(2-thienylmethyl) imidazo[1,2-b]pyridazin-6-amine] | 5.39 µM |
| Oc1cccc(-c2cnc3ccc(NCc4cccs4)nn23)c1 [229_0146_0284, 3-[6-(2-thienylmethyl-amino)imidazo[1,2-b]pyridazin-3-yl]phenol] | 1.7 µM |
| Nc1ccc(-c2cnc3ccc(NCc4cccs4)nn23)cc1 [229_0146_0333, 3-(4-amino-phenyl)-N-(2-thienylmethyl) imidazo[1,2-b]pyridazin-6-amine] | 5.42 µM |
| COc1cccc(-c2cnc3ccc(NCc4cccs4)nn23)c1 [229_0146_4140, 3-(3-methoxyphenyl)-N-(2-thienylmethyl) imidazo[1,2-b]pyridazin-6-amine] | 2.95 µM |
| CC(=O)c1cccc(-c2cnc3ccc(NCc4cccs4)nn23)c1 [229_0146_4145, 1-[3-[6-(2-thienylmethyl-amino)imidazo[1,2-b]pyridazin-3-yl]phenyl] ethanone] | 0.441 µM |
| CCC(CO)Nc1ccc2ncc(-c3cccc(OC)c3)n2n1 (stereo not shown) [229_0153_4140, 2-[[3-(3-methoxyphenyl)imidazo[1,2-b]pyridazin-6-yl]amino]butan-1-ol] | 1.55 µM |
| CCC(CO)Nc1ccc2ncc(-c3cccs3)n2n1 (stereo not shown) [229_0153_4147, 2-[[3-(2-thienyl)imidazo [1,2-b]pyridazin-6-yl]amino] butan-1-ol] | 3.97 µM |

Continued by falling IC50, values first:

| IC50 | SMILES |
| --- | --- |
| 21.1 µM | CCC(CO)Nc1cncc(-c2ccc(N)cc2)n1 (stereo not shown) [035_0153_0333, 2-[[6-(4-aminophenyl)pyrazin-2-yl]amino]butan-1-ol] |
| 15.3 µM | CCC(CO)Nc1cncc(-c2ccc(O)cc2)n1 (stereo not shown) [035_0153_0080, 4-[6-[1-(hydroxymethyl)propylamino]pyrazin-2-yl]phenol] |
| 11.8 µM | CCC(CO)Nc1cncc(-c2cc(C(C)C)ccc2OC)n1 (stereo not shown) [035_0153_0286, 2-[[6-(5-isopropyl-2-methoxy-phenyl)pyrazin-2-yl]amino]butan-1-ol] |
| 9.06 µM | COc1ccc(-c2cncc(-c3cccc(C(=O)NCCCN(C)C)c3)n2)cc1 [035_0280_0302, N-[3-(dimethylamino)propyl]-3-[6-(4-methoxyphenyl)pyrazin-2-yl]benzamide] |
| 6.68 µM | Nc1cccc(-c2cncc(NCc3ccccc3)n2)c1 [035_0232_0005, 6-(3-aminophenyl)-N-benzyl-pyrazin-2-amine] |
| 6.38 µM | c1ccc(-c2cnc3ccc(NCc4ccco4)nn23)cc1 [229_0144_0061, N-(2-furylmethyl)-3-phenyl-imidazo[1,2-b]pyridazin-6-amine] |
| 3.5 µM | COc1ccc(-c2cncc(-c3cccc(NC(C)=O)c3)n2)cc1 [035_0081_0280, N-[3-[6-(4-methoxyphenyl)pyrazin-2-yl]phenyl] acetamide] |
| 3.28 µM | Fc1ccc(-c2cnc3ccc(NCc4cccs4)nn23)cc1 [229_0146_0339, 3-(4-fluoro-phenyl)-N-(2-thienylmethyl) imidazo[1,2-b]pyridazin-6-amine] |
| 3.1 µM | COc1cc(-c2cnc3ccc(NCc4cccs4)nn23)cc(OC)c1OC [229_0146_0087, N-(2-thienylmethyl)-3-(3,4,5-trimethoxyphenyl) imidazo[1,2-b]pyridazin-6-amine] |
| 2.7 µM | CN(C)c1cccc(-c2cnc(Nc3ccc(N4CCOCC4)cc3)c3nccn23)c1 [184_0088_0135, 5-[3-(dimethyl-amino)phenyl]-N-(4-morpholino-phenyl) imidazo[1,2-a]pyrazin-8-amine] |
| 2.47 µM | CCC(CO)Nc1ccc2ncc(-c3ccc(CO)cc3)n2n1 (stereo not shown) [229_0153_0285, 2-[[3-[4-(hydroxy-methyl)phenyl]imidazo[1,2-b]pyridazin-6-yl]amino]butan-1-ol] |
| 2.37 µM | CCC(CO)Nc1ccc2ncc(-c3ccc(OC)nc3)n2n1 (stereo not shown) [229_0153_0311, 2-[[3-(6-methoxy-3-pyridyl)imidazo [1,2-b]pyridazin-6-yl]amino] butan-1-ol] |
| 1.78 µM | C[C@@H](c1ccccc1)n1c(=O)[nH]c2ncc(-c3cccc(C(=O)N(C)C)c3)nc21 [170_0148_0349, N,N-dimethyl-3-[2-oxo-3-[(1S)-1-phenylethyl]-1H-imidazo[4,5-b]pyrazin-5-yl]benzamide] |
| 1.28 µM | CCC(CO)Nc1ccc2ncc(-c3cc(OC)c(OC)c(OC)c3)n2n1 (stereo not shown) [229_0153_0087, 2-[[3-(3,4,5-trimethoxy-phenyl)imidazo[1,2-b]pyridazin-6-yl]amino] butan-1-ol] |
| 1.28 µM | CCC(CO)Nc1ccc2ncc(-c3ccc(OC)cc3)n2n1 (stereo not shown) [229_0153_0280, 2-[[3-(4-methoxyphenyl)imidazo[1,2-b]pyridazin-6-yl]amino] butan-1-ol] |
| 1.09 µM | OCc1ccc(-c2cnc3ccc(NCc4cccs4)nn23)cc1 [229_0146_0285, [4-[6-(2-thienylmethyl-amino)imidazo[1,2-b]pyridazin-3-yl]phenyl] methanol] |
